We go through five molecules from DBAASP.

By MIC is commonly meant the lowest concentration found to suppress growth. Lower therefore signals greater potency.

≈ marks a conversion by molar mass, not a printed value. A value given as a limit tells only on which side of the number the result lay.

Holding throughout (test): ≥ marks a high value that may be exact or a test limit, other limits are often not marked, values filed in µg/mL are converted to µM
In assay [1] the test system is Candida albicans FRR 5580.
Assay [2] relates to Escherichia coli ATCC 25922.
For assay [3], the system named is Staphylococcus aureus ATCC 25923.
Assay [4] deals with Pseudomonas aeruginosa ATCC 9027.
Assay [5] deals with Escherichia coli BL21.
The subject of assay [6] is Pseudomonas aeruginosa PAO1.
In assay [7] the test system is Streptococcus pyogenes M1T1 5448.
Assay [8] has as its system Staphylococcus aureus ATCC 29213.
Assay [9] has as its system Escherichia coli K99.
The test system of assay [10] is Lactiplantibacillus plantarum 8014.
For assay [11], the system named is Lacticaseibacillus rhamnosus 1.0936.
The subject of assay [12] is Escherichia coli K88.
The test system of assay [13] is Lacticaseibacillus rhamnosus 1.0385.
For assay [14], the system named is Pseudomonas aeruginosa ATCC 27853.
The subject of assay [15] is Lacticaseibacillus rhamnosus 7469.
Assay [16] has as its system Escherichia coli UB1005.
For assay [17], the system named is Lacticaseibacillus rhamnosus 1.0911.
The test system of assay [18] is Salmonella enterica subsp. enterica serovar Typhimurium C77-31.
The test system of assay [19] is Salmonella enterica subsp. enterica serovar Typhimurium ATCC 14028.
The subject of assay [20] is Staphylococcus aureus ATCC 43300.
Assay [21] deals with Salmonella enterica subsp. enterica serovar Pullorum C79-13.
For assay [22], the system named is Staphylococcus aureus ATCC BAA-1683.
The subject of assay [23] is Escherichia coli.
Assay [24] concerns Klebsiella pneumoniae.
Assay [25] deals with Pseudomonas aeruginosa CMCC 10104.
In assay [26] the test system is Aeromonas hydrophila.
For assay [27], the system named is Vibrio alginolyticus.
In assay [28] the test system is Enterococcus faecium.
Assay [29] concerns Shigella flexneri ATCC 12022.
The subject of assay [30] is Clostridium perfringens ATCC 13124.
Assay [31] deals with Bacillus subtilis CMCC 63501.
For assay [32], the system named is Vibrio parahaemolyticus.
Assay [33] deals with Staphylococcus epidermidis.
Assay [34] has as its system Escherichia coli CMCC 44102.
Assay [35] deals with Vibrio vulnificus.
For assay [36], the system named is Candida albicans CMCC 98001.
Assay [37] relates to Vibrio splendidus.
Assay [38] concerns Aeromonas sobria.
In assay [39] the test system is Enterococcus faecalis ATCC 29212.
In assay [40] the test system is Bacillus cereus CMCC 63301.
The subject of assay [41] is Candida albicans 1.
For assay [42], the system named is Candida glabrata.
In assay [43] the test system is Vibrio harveyi.
Assay [44] relates to Staphylococcus aureus CMCC 26003.
For assay [45], the system named is Acinetobacter baumannii.

`CC(C)[C@H](NC(=O)[C@@H]1CCCN1C(=O)[C@H](Cc1ccccc1)NC(=O)[C@H](CCCCN)NC(=O)CNC(=O)[C@H](CCCCN)NC(=O)[C@H](Cc1c[nH]c2ccccc12)NC(=O)[C@H](Cc1c[nH]c2ccccc12)NC(=O)[C@H](CCCCN)NC(=O)[C@H](Cc1c[nH]c2ccccc12)NC(=O)[C@H](Cc1c[nH]c2ccccc12)NC(=O)[C@H](CCCN=C(N)N)NC(=O)[C@H](Cc1c[nH]c2ccccc12)NC(=O)[C@@H](NC(=O)[C@@H](NC(=O)[C@@H]1CCCN1C(=O)[C@@H](N)Cc1ccccc1)C(C)C)[C@@H](C)O)C(=O)N[C@H](C(=O)N[C@@H](Cc1c[nH]c2ccccc12)C(=O)N[C@@H](CCCN=C(N)N)C(=O)N[C@@H](Cc1c[nH]c2ccccc12)C(=O)N[C@@H](Cc1c[nH]c2ccccc12)C(=O)N[C@@H](CCCCN)C(=O)N[C@@H](Cc1c[nH]c2ccccc12)C(=O)N[C@@H](Cc1c[nH]c2ccccc12)C(=O)N[C@@H](CCCCN)C(=O)NCC(=O)O)[C@@H](C)O` [FPVTWRWWKWWKGKFPVTWRWWKWWKG]: the MIC in assay [1] was at least 32.6 µM; in [2], 65.2 µM (≈ 250 µg/mL); in assay [3], 65.2 µM (≈ 250 µg/mL); in assay [4], above 65.2 µM.

Turning to `CC[C@H](C)[C@H](NC(=O)[C@H](CCCN=C(N)N)NC(=O)[C@H](CC(N)=O)NC(=O)[C@@H](NC(=O)CNC(=O)[C@H](C)N)[C@@H](C)O)C(=O)N[C@@H](C)C(=O)N[C@@H](CCCCN)C(=O)N[C@@H](CCC(=O)O)C(=O)N[C@@H](CC(C)C)C(=O)N[C@@H](CCCN=C(N)N)C(=O)N[C@@H](CCCN=C(N)N)C(=O)N[C@@H](Cc1ccc(O)cc1)C(=O)N[C@H](C(=O)N[C@@H](CCCN=C(N)N)C(=O)N[C@@H](CCCCN)C(=O)N[C@H](C(=O)NCC(=O)N[C@@H](CCCN=C(N)N)C(=O)N[C@H](C(=O)N[C@@H](CCCCN)C(=O)N[C@@H](CCCN=C(N)N)C(=O)N[C@@H](CCCCN)C(=O)N[C@@H](C)C(=O)N[C@@H](Cc1c[nH]c2ccccc12)C(=O)O)[C@@H](C)CC)C(C)C)[C@@H](C)CC` [AGTNRIAKELRRYIRKVGRIKRKAW], the MIC is 0.25 µM (≈ 0.76 µg/mL) in assay [5], 16 µM (≈ 48.7 µg/mL) in assay [6] and 2 µM (≈ 6.08 µg/mL) in assay [7].

On to `C[C@H](NC(=O)[C@H](C)NC(=O)[C@H](Cc1c[nH]c2ccccc12)NC(=O)[C@H](Cc1c[nH]c2ccccc12)NC(=O)[C@H](Cc1c[nH]c2ccccc12)NC(=O)[C@H](CCCN=C(N)N)NC(=O)[C@@H]1CSSC[C@H](N)C(=O)N[C@@H](C)C(=O)N[C@@H](CO)C(=O)N[C@@H](Cc2ccc(O)cc2)C(=O)N[C@@H](Cc2ccccc2)C(=O)N1)C(N)=O` [CASYFCRWWWAA], for which the MIC was above 64 µM in [8]; above 64 µM in assay [2]; at least 64 µM in assay [9]; at least 64 µM in assay [10]; at least 64 µM in assay [11]; at least 64 µM in [12]. For the same molecule, the MIC in assay [13] was at least 64 µM; in [14], above 64 µM; in [15], at least 64 µM; in [16], at least 64 µM; in [17], at least 64 µM; in [18] it was at least 64 µM. For the same molecule, the MIC was above 64 µM in assay [19], above 64 µM in [3], above 64 µM in assay [20] and at least 64 µM in assay [21].

In the case of `CC(C)C[C@H](NC(=O)[C@H](CC(C)C)NC(=O)[C@H](CCCCN)NC(=O)[C@H](Cc1c[nH]c2ccccc12)NC(=O)[C@H](Cc1c[nH]c2ccccc12)NC(=O)[C@@H](N)CCCCN)C(=O)N[C@@H](CCCN=C(N)N)C(=O)N[C@@H](CCCCN)C(=O)N[C@@H](CCCCN)C(=O)N[C@@H](CCCN=C(N)N)C(N)=O` [KWWKLLRKKR], the MIC was 21.7 µM (≈ 31.2 µg/mL) in assay [3], at least 43.3 µM in assay [22] and 173 µM (≈ 250 µg/mL) in [23].

Consider `CC[C@H](C)[C@H](NC(=O)[C@H](CC(N)=O)NC(=O)[C@H](CS)NC(=O)CNC(=O)[C@@H](N)CCC(=O)O)C(=O)N[C@@H](CC(C)C)C(=O)N[C@@H](CS)C(=O)N[C@@H](CC(C)C)C(=O)N[C@@H](CC(C)C)C(=O)N[C@@H](CCCCN)C(=O)N[C@@H](CCCN=C(N)N)C(=O)N[C@@H](CCCCN)C(=O)N[C@H](C(=O)N[C@@H](CCCCN)C(=O)N[C@@H](C)C(=O)N[C@H](C(=O)N[C@@H](CCCCN)C(=O)N[C@@H](CC(N)=O)C(=O)N[C@H](C(=O)N[C@H](C(=O)N[C@@H](CCCCN)C(=O)N[C@@H](CC(N)=O)C(=O)N[C@H](C(=O)N[C@H](C(=O)N[C@@H](CCCCN)C(=O)N[C@@H](CO)C(=O)N[C@H](C(=O)N[C@H](C(=O)NCC(=O)O)C(C)C)C(C)C)C(C)C)C(C)C)C(C)C)C(C)C)C(C)C)C(C)C` [EGCNILCLLKRKVKAVKNVVKNVVKSVVG], for which the MIC was above 31.9 µM in [24]; 31.9 µM (≈ 100 µg/mL) in assay [25]; 11.9 µM (≈ 37.5 µg/mL) in assay [26]; 31.9 µM (≈ 100 µg/mL) in assay [27]; 31.9 µM (≈ 100 µg/mL) in assay [28]; 2.99 µM (≈ 9.38 µg/mL) in assay [2]. The MIC amounted to 5.97 µM (≈ 18.8 µg/mL) in [29]; 11.9 µM (≈ 37.5 µg/mL) in assay [30]; 11.9 µM (≈ 37.5 µg/mL) in assay [31]; 2.99 µM (≈ 9.38 µg/mL) in [32]; 31.9 µM (≈ 100 µg/mL) in [33]; 5.97 µM (≈ 18.8 µg/mL) in assay [34]. Moreover, the MIC in [35] is 31.9 µM (≈ 100 µg/mL); in assay [36], 31.9 µM (≈ 100 µg/mL); in assay [37], 23.9 µM (≈ 75 µg/mL); in assay [38], 31.9 µM (≈ 100 µg/mL); in [39], above 31.9 µM; in assay [40] it was 31.9 µM (≈ 100 µg/mL). Moreover, the MIC is 31.9 µM (≈ 100 µg/mL) in assay [41]; 31.9 µM (≈ 100 µg/mL) in assay [42]; 23.9 µM (≈ 75 µg/mL) in [43]; 2.99 µM (≈ 9.38 µg/mL) in [44]; 31.9 µM (≈ 100 µg/mL) in assay [45].
